Values quoted from earlier work as cited in patent US5110799A, “Antiherpetic agents” (Merck & Co., Inc., priority 1989, dated 1992).

Biological target: ribonucleotide reductase enzyme of herpes simplex virus (Human herpesvirus 1, UniProt P08543)
Details: in vitro; Dutia et al., Cohen et al., U.S. Pat. No. 4,795,740

Sequence of ribonucleotide reductase enzyme of herpes simplex virus (P08543 whole entry): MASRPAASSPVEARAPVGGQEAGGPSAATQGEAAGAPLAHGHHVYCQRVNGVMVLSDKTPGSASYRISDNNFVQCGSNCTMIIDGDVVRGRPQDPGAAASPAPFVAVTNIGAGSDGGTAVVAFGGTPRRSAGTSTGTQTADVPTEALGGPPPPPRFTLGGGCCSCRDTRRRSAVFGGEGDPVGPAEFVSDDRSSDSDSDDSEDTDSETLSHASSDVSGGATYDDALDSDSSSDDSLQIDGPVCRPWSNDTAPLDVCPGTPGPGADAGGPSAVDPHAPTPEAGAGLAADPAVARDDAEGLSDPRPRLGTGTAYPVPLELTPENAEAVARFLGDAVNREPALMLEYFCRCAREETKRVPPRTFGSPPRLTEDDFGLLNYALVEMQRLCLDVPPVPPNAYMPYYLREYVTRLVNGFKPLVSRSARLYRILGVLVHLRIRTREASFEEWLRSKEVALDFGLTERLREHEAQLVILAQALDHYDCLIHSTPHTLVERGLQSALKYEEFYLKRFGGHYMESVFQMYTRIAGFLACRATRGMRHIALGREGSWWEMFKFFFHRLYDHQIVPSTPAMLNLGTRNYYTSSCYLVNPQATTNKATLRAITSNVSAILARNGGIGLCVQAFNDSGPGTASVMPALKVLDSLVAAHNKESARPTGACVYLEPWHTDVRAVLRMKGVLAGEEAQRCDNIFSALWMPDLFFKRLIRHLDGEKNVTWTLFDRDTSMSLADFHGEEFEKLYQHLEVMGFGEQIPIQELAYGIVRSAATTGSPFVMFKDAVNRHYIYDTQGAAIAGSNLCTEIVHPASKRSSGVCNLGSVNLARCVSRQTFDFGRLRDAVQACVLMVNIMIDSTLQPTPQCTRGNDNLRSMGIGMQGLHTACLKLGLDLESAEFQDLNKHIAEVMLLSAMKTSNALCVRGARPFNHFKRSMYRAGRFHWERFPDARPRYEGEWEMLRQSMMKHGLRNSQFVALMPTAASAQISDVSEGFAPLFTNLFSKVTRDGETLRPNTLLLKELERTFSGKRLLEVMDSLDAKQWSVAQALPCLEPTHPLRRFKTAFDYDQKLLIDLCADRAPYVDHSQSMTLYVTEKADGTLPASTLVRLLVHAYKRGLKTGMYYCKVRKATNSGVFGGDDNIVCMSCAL

Substance | inhibition of the activity of HSV ribonucleotide reductase
Tyr Ala Gly Ala Val Val Asn Asp Leu | inhibited in vitro the activity of this enzyme
Tyr gly Ala Val Val Asn Asp Leu | inhibited in vitro the activity of this enzyme
